Data from BindingDB's records for doi:10.1021/acs.jmedchem.8b00164 (Athenex, 2018).

What was measured:
[1] = Inhibition of human c-SRC expressed in mouse NIH/3T3 cells assessed as inhibition of cell growth in presence of 1.5% FCS by BrdU incorporation assay
[2] = Inhibition of human c-SRC expressed in mouse NIH/3T3 cells assessed as inhibition of cell growth in presence of 0.5% FCS

| IC50 [1] | IC50 [2] | Compound |
| --- | --- | --- |
| 269 nM | – | O=C(Cc1ccc(-c2ccccc2)cn1)NCc1cccc(F)c1 |
| 118 nM | – | O=C(Cc1ccc(-c2ccc(OCCN3CCOCC3)cc2)cn1)NCc1cccc(F)c1 |
| 349 nM | – | O=C(Cc1ccc(-c2ccccc2)cc1)NCc1cccc(F)c1 |
| 13 nM | 6.5 nM | O=C(Cc1ccc(-c2ccc(OCCN3CCOCC3)cc2)cn1)NCc1ccccc1 [N-benzyl-2-(5-(4-(2-morpholinoethoxy)phenyl)pyridin-2-yl)acetamide] |
